Measurements from patent publication US20160286800A1, “STABILIZED COMPOSITION OF AN OXIDIZER AND METAL IONS, METHOD AND USE FOR IMPROVING DISEASE CONTROL, AND KIT FOR PREPARING SAID COMPOSITION” (AGRI-NÉO INC., priority 2013, published 2016).
Entries after “also recorded” stand apart in the source; their conditions may differ. Like-named read-outs stand apart in the source and are kept apart here.

Experiments:
[1] = Peracetic acid concentration in aqueous solution over time, Lamotte peracetic acid test kit (code 7191-01); type: physicochemical; conditions: with or without copper hydroxide / metal ions
Excerpt: Those skilled in the art know how to monitor levels of peracetic in solutions. For instance, it is known to use iodometric titration (F. P. Greenspan and D. G. MacKellar, 1948, Anal. Chem., 20, 1061) or to use analytical test strips. Suitable test strips include those manufactured by Merck and which are currently available under two different formats (i.e. 5-50 ppm and 100-500 ppm). These test strips provide a rapid, convenient semi-quantitative method of determining peracetic levels. LaMotte Company (Chestertown, Md., USA) also provides a test kit (code 7191-01) for titrating peracetic acid.
Peracetic acid was generated by admixing with water a powdered product which is hereinafter called ATO CIDE. More particularly, 2 grams of the powdered product identified hereinafter under the name ATO CIDE was added and mixed for 10 minutes with in 1 liter of water, to give a solution of 2 g/L ATO CIDE. ATO CIDE is a powdered mixture consisting of:
(§1) Then, 100 mL of the above-mentioned solution of peracetic acid (i.e ATO CIDE solution) was mixed for 5 minutes with 0.1 g of a powdered product sold under the trademark PARASOL WG®. PARASOL WG® is a powdered product comprising 50% elemental copper as copper hydroxide.
as §1, with “Then, a” for “Then,”, “0.2 mL of a complexing agent (PBTCA) until the sequestering agent was dissolved completely, and then” for “with”, “WG® is added and dissolved with the resulting mixture.” for “WG®.”
Then mixtures were prepared as per below table:
(§2) Then mixtures #1 to #5 were prepared as per below table:
(§3) Mixtures were prepared at room temperature (around 20° C.) as per the following table: […]

[2] = tested on: strawberry; assay: Phytotoxicity to strawberry (statement); conditions: applied individually to strawberry; stated, no data shown
[3] = pH of the mixtures over time; type: physicochemical; conditions: Trt 1 pH (0.1%)
Method: as §2, §3

[4] = tested on: strawberry; conditions: in vivo

## OB(O)O [Boric acid, boric acid]
[1]
  effect on stability of peracetic acid (conclusion in words): stabilizes PERACETIC ACID in solution for a longer period of time; also recorded: not as good as phosphoric acid in chelating copper hydroxide

## O=P(O)(O)O [Phosphoric acid, phosphoric acid]
[1]
  effect on stability of peracetic acid (conclusion in words): prevented peracetic acid from being decomposed
[1]; listed as phosphoric acid
  effect on stability of peracetic acid (conclusion in words): prevented the decomposition of peracetic acid by metal ions

## OP(O)O [Phosphorous acid, phosphorous acid]
[1]
  effect on stability of peracetic acid (conclusion in words): stabilizes the peracetic acid very well
[2]
  phytotoxicity: phytotoxic

## NS(=O)(=O)O [Sulfamic acid, sulfamic acid]
[1]
  effect on stability of peracetic acid (conclusion in words): prevented peracetic acid from being decomposed

## OP(O)O [Trt 1, Phosphorous acid]
[3]; Example 15, 24 hrs, Trt 2 pH (0.2%)
  pH: 2.53
[3]; Example 15, 48 hrs, Trt 2 pH (0.2%)
  pH: 2.80
[3]; Example 15, 120 hrs, Trt 2 pH (0.2%)
  pH: 2.90
[3]; Example 15, 148 hrs, Trt 2 pH (0.2%)
  pH: 2.85
[3]; Example 15, 172 hrs, Trt 2 pH (0.2%)
  pH: 2.80
[3]; Example 15, room temperature, Time zero (Trt 3-5: after the additions)
  pH: 2.80

## copper
[4]
  phytotoxicity: phytotoxic
